Assay results reported in article PMC9024361, “Pharmacokinetics, Tissue Distribution, Metabolism and Excretion of a Novel COX-2 Inhibitor, Vitacoxib, in Rats” (Frontiers in Veterinary Science, 2022).
“Also recorded” adds a separate entry of the source. Read-outs that look alike come from different tables or passages of the source.

Experiments:
[1] = Metabolite identification in plasma, bile, urine and feces (UPLC Q-TOF MS); format: in vivo, Wistar rats; conditions: rats; for Source (matrices in which the metabolite was detected): single oral 18 mg/kg vitacoxib, Q-TOF MS; for Share of the metabolite in urinary and fecal excretion: urine and feces, not quantified
Description: Six male rats were placed in their own metabolic cages and orally administered a single dose of 18 mg/kg dose of vitacoxib (tablets crushed and dissolved in 0.5% CMC-Na, 6 mg/ml). Bile, fecal, and urine samples were collected from each animal in metabolic cages at 0~8, 8~23, 23~32, 32~48, 48~58, 58~72, 72~82, 82~96, and 96~128 h after administration. The total weight of urine and feces was recorded after collection. Feces samples were diluted with 3 volumes (v/w) of triple-distilled water and homogenized, and the homogenate was stored at −20°C until further analysis.
Chromatographic separation was performed using an ACQUITY UPLC^TM system (Waters Corporation, Milford, MA, USA). A Waters ACQUITY UPLC HSS T3 column (1.7 μm, 2.1 mm × 100 mm) was used for reversed-phase UPLC and the column temperature was maintained at 40°C. The flow rate of the mobile phase was 0.5 ml/min and the injection volume was 5 μl. Mobile phase A was 0.1% formic acid in water and mobile phase B was 0.1% formic acid in methanol. The column was eluted using a linear gradient (0 → 1 min, phase A 90%; 1 → 10 min, phase A 90% → 5%; 10 → 13.5 min, phase A 5% → 5%; and 13.5 → 15 min, phase A 5% → 90%).
MS analysis was performed using a Xevo G2-S Q-TOF mass spectrometer. The eluent was not shunted but injected directly into the mass analysis system in the positive-ion mode. The source temperature was set at 120°C. The flow rate of the desolvation gas was 800 L/h at a temperature of 500°C. The capillary voltage was set at 3 kV with 35 V as the cone voltage. Methods to analyze different tissues and samples were developed and validated in our lab. Data were analyzed using Metabolynx^TM software (version 4.1), which could automatically identify metabolites by comparing treatment samples with the respective controls.

[2] = Plasma pharmacokinetics after a single oral dose; format: in vivo; conditions: male, Wistar, rat, rats, single p.o. 18 mg/kg b.w., n = 5, plasma
Description: (§1) Five male rats were administered a single dose of vitacoxib (18 mg/kg) obtained by crushing and dissolving vitacoxib tablets in 0.5% CMC-Na (6 mg/ml). Blood samples (0.3 ml) were collected via a cannula directly into heparinized tubes before drug administration and 5, 15, 30 min, and 1, 2, 3, 4, 6, 8, 10, 12, 24, 36, and 48 h after drug administration. The samples were centrifuged at 2,280 × g for 10 min as soon as possible and stored at −20°C until further analysis (within 21 days).
Vitacoxib in plasma samples was analyzed using an established and validated UPLC-MS/MS (Waters Acquity UPLC and Water Quattro Premier, Waters Co., USA) method using a procedure previously described by our group ([18]). The lower limit of quantification was 0.5 ng/ml and the calibration range of the method was 0.5–1,000 ng/ml. Noncompartmental analysis was performed to determine the pharmacokinetic parameters, as appropriate, using WinNonlin^TM (version 6.4, Certara, Princeton NJ, USA) computational software.

rats = experiment: Observation of adverse effects after a single oral dose; format: in vivo, Wistar rats; conditions: single oral dose 18 mg/kg BW
Description: as §1

[3] = Tissue distribution after a single oral dose; format: in vivo, Wistar rats; conditions: rats
Description: Eighteen rats were administered a single oral dose (18 mg/kg BW) of vitacoxib (tablets crushed and dissolved in 0.5% CMC-Na, 6 mg/ml). Six rats were euthanized at each time point of 0.25, 6, and 24 h after dose administration. The brain, liver, heart, spleen, lungs, bladder, kidneys, gracilis muscle, gastrointestinal tract, large intestinal contents, small intestine, bone marrow, testes, epididymis, thymus gland, fat, and pancreas were collected and weighed. Each sample was diluted with 3 volumes (v/w) of triple-distilled water and homogenized, and the homogenate was stored at −20°C until further analysis. Vitacoxib in tissue samples was analyzed using UPLC-MS/MS by following a previously described procedure.

[4] = Urinary and fecal excretion of unchanged drug; format: in vivo, Wistar rats; conditions: rats
Description: Six male rats were placed in separate metabolic cages and administered a single oral dose of 18 mg/kg of vitacoxib (tablets were crushed and dissolved in 0.5% CMC-Na, 6 mg/ml). Urine and fecal samples were collected from each animal in metabolic cages at different time points at 2, 4, 6, 8, 10, 14, 24, 36, 48, 60, 72, 84, 96, 108, 120, 132, 144, 156, and 168 h after drug administration.
(§2) Eight male rats with bile-duct cannulation were administered 18 mg/kg of vitacoxib (tablets crushed and dissolved in 0.5% CMC-Na, 6 mg/ml). Rats were housed in metabolism cages and bile samples were collected at 2, 4, 6, 8, 10, 14, 24, 36, 48, 60, and 72 h after drug administration. All samples were stored at −20°C until further analysis. […] Vitacoxib in urine, fecal, and bile samples was determined via validation UPLC-MS/MS using the procedure described for blood ([18]).

[5] = Bile excretion of unchanged drug in bile-duct cannulated rats; format: in vivo, Wistar rats; conditions: single oral 18 mg/kg, 0~72 h
Description: as §2

SD rats = system: SD rats; set-up: method as in PMID 28238853, PMID 29601910; conditions: repeated dietary administration, cited from earlier work
rats and mice = system: rats and mice; set-up: method as in PMID 30128300; conditions: cited from earlier work
rabbits = system: rabbits; set-up: method as in PMID 28959651; conditions: cited from earlier work
guinea pigs = system: guinea pigs; set-up: method as in PMID 28959651; conditions: cited from earlier work
[6] = set-up: method as in PMID 30076623; conditions: horses, 0.1 mg/kg bw; cited from earlier work
COX-2 [7] = system: COX-2; set-up: method as in doi:10.11669/cpj.2013.20.011; conditions: dogs, preclinical trials; cited from earlier work
COX-2 [8] = system: COX-2; set-up: method as in doi:10.11669/cpj.2013.20.011; conditions: rats, preclinical trials; cited from earlier work
Sprague Dawley (SD) rats = conditions: rat, in vivo; cited from earlier work
[9] = system: Institute of Cancer Research (ICR) mice; conditions: mouse, in vivo; cited from earlier work
[10] = dog, in vivo, 2 mg/kg; cited from earlier work

SMILES: CS(=O)(=O)c1ccc(-n2cnc(Cl)c2-c2ccc(CO)cc2)nc1 [M1]
- Source (matrices in which the metabolite was detected) [1]: Plasma, bile, feces, and urine
- Share of the metabolite in urinary and fecal excretion [1]: minor amount of the dose

SMILES: CS(=O)(=O)c1ccc(-n2cnc(Cl)c2-c2ccc(C(=O)O)cc2)nc1 [M2, 4-(4-chloro-1-(5-(methylsulfonyl)pyridin-2-yl)-1H-imidazol-5-yl) benzoic acid]
- Source (matrices in which the metabolite was detected) [1]: Bile, feces, and urine
- Share of the metabolite in urinary and fecal excretion ([1]; listed as carboxylic acid derivative): major metabolite
- Share of the metabolite in urinary and fecal excretion ([1]; listed as carboxylic acid metabolite): primary metabolite

SMILES: Cc1ccc(-c2c(Cl)ncn2-c2ccc(S(C)(=O)=O)cn2)cc1 [vitacoxib, 2-(4-chloro-5-p-tolyl-1H-imidazol-1-yl)-5-(methylsulfonyl) pyridine]
- Tmax ([2]; plasma, 18 mg/kg): ~5 h
- AUC(0-inf) ([2]; 0 to infinity, read-out: AUCINF_obs): 4930 ± 588 ng·h/mL
- AUC(0-t) ([2]; 0 to last point): 4900 ± 604 ng·h/mL
- k el ([2]; noncompartmental, read-out: λz (elimination rate constant) (converted)): 4.44e-05 s⁻¹
- Cmax ([2]; read-out: Cmax (maximum plasma concentration)): 450 ± 96.2 ng/mL
- MRT last ([2]; read-out: MRTlast (mean residence time)): 8.09 ± 1.72 h
- half-life ([2]; read-out: T1/2λz (elimination half-life) (converted)): 4.25 ± 0.3 h
- Adverse effects (rats): No obvious or serious adverse effects; also recorded: no adverse effects
- Crossing of the intestinal barrier ([3]; single oral dose 18 mg/kg BW): could cross the intestinal barrier
- Time by which vitacoxib was detected in most tissues ([3]; single oral dose 18 mg/kg BW): ≤ 15 min
- Concentration in most tissues by 24 h after administration ([3]; single oral dose 18 mg/kg BW, 24 h): below the limit of detection
- Presence in brain / crossing of blood-brain barrier ([3]; single oral dose 18 mg/kg BW, 18 mg/kg): found in the brain; also recorded: cross the blood-brain barrier
- Order of AUC(0~24h) values in different tissues ([3]; single oral gavage dose 18 mg/kg bw): gastric contents > large intestinal contents > small intestinal contents > stomach > large intestine > pancreas > liver > small intestine > fat > lungs > spleen > brain > plasma > testes > kidneys > spinal cord > thymus > bones > heart > spermatic > skeletal muscles > bladder
- Cumulative excretion in feces in unaltered form ([4]; single oral 18 mg/kg, 0~168 h): 4.7334% ± 1.6645%
- Cumulative excretion in urine in unaltered form ([4]; single oral 18 mg/kg, 0~168 h): 0.0135% ± 0.0053%
- Dose recovered in the urine or feces as the parent drug ([4]; single oral dose): < 5%
- Cumulative excretion in bile in unaltered form [5]: 0.0261% ± 0.00627%
- No-observed-adverse-effect-level (90 days) (SD rats; 90 days): 20 mg/kg
- No-observed-adverse-effect-level (180 days) (SD rats; 180 days): 6 mg/kg BW/day
- Mutagenicity (rats and mice): No mutagenicity or teratogenicity
- Teratogenicity (rats and mice): No mutagenicity or teratogenicity
- Skin irritation (rabbits): does not cause skin irritation
- Skin sensitization (guinea pigs): does not cause skin irritation in rabbits or skin sensitization
- T1/2λz [6]: 7.39 ± 4.17 h
- COX-2 inhibition (specificity) (COX-2 [7]): specifically inhibits COX-2
- COX-2 inhibition (specificity) (COX-2 [8]): specifically inhibits COX-2
- Oral LD50 (Sprague Dawley (SD) rats): > 5,000 mg/kg body weight (BW)
- Oral LD50 [9]: > 5,000 mg/kg body weight (BW)
- T1/2λz [10]: 5. 87 ± 3. 37 h
